Assay results from the NIST ThermoML archive (doi:10.1021/acs.jced.8b00488).
Numbers after ± are expanded uncertainties.

Conditions: Liquid, Ebulliometric method (Recirculating still)

SMILES | vapor or sublimation pressure (329.33 K) [kPa] | vapor or sublimation pressure (374.12 K) [kPa]
CC(C)=O [acetone] | 101.3 ± 0.8 | 
C[Si](C)(C)O[Si](C)(C)C [hexamethyldisiloxane] |  | 101.3 ± 0.8
